Test results published in patent publication US9603364B2 (Dow AgroSciences LLC, priority 2013, dated 2017).

Tests used:
Assay in all cases: General post-emergent herbicidal activity, foliar application
Assay type in all cases: in vivo
Oryza sativa L. (rice) = details: Oryza sativa, 336 h, scored after 14 days, read-out: % Visual Growth Reduction ORYSA; for plant injury at 35 g/ha: 35 g ai/ha; for plant injury at 70 g/ha: 70 g ai/ha; for plant injury at 140 g/ha: 140 g ai/ha; for plant injury at 280 g/ha: 280 g ai/ha
Method in brief: (§1)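 Injury rated visually 14 days after treatment on a 0 (none) to 100% (complete kill) scale against untreated plants; greenhouse-grown, sub-irrigated to avoid wash-off. Foliar spray in aqueous acetone/DMSO with isopropanol, crop oil concentrate and Triton X-155, at a highest rate and 2-fold serial dilutions down to 1/16×.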

Zea mays L. (corn) = details: 336 h, scored after 14 days, read-out: % Visual Growth Reduction ZEAMX; for plant injury at 35 g/ha: 35 g ai/ha; for plant injury at 70 g/ha: 70 g ai/ha; for plant injury at 140 g/ha: 140 g ai/ha; for plant injury at 280 g/ha: 280 g ai/ha
Method in brief: as §1

[1] = test system: Chenopodium album L. (lambsquarters, common); details: for pest or weed control at 35 g/ha / pest or weed control at 70 g/ha / pest or weed control at 140 g/ha / pest or weed control at 280 g/ha: Chenopodium album, 336 h, foliar post-emergent, scored after 14 days, read-out: % Visual Growth Reduction CHEAL; for pest or weed control at 35 g/ha: 35 g ai/ha; for pest or weed control at 70 g/ha: 70 g ai/ha; for pest or weed control at 140 g/ha: 140 g ai/ha; for pest or weed control at 280 g/ha: 280 g ai/ha; for GR80 Value CHEAL: calculated by probit analysis, dose for 80% visual injury, may be extrapolated
Method in brief: (§2)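 Compounds in acetone/DMSO (97:3) were diluted into aqueous spray containing isopropyl alcohol, Atplus 411F crop oil and Triton X-155, then applied post-emergence to foliage at a top rate plus 1/2× to 1/16× serial dilutions. Injury was scored visually (0–100%) after 14 days in a sub-irrigated greenhouse versus untreated plants. GR20/GR50/GR80 were derived by probit analysis, with some GR80 values extrapolated from curve slope.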

[2] = test system: Helianthus annuus L. (sunflower, common); details: for pest or weed control at 35 g/ha / pest or weed control at 70 g/ha / pest or weed control at 140 g/ha / pest or weed control at 280 g/ha: Helianthus annuus, 336 h, foliar post-emergent, scored after 14 days, read-out: % Visual Growth Reduction HELAN; for pest or weed control at 35 g/ha: 35 g ai/ha; for pest or weed control at 70 g/ha: 70 g ai/ha; for pest or weed control at 140 g/ha: 140 g ai/ha; for pest or weed control at 280 g/ha: 280 g ai/ha; for GR80 Value HELAN: calculated by probit analysis, dose for 80% visual injury, may be extrapolated
Method in brief: as §2

[3] = test system: Euphorbia heterophylla L. (poinsettia, wild); details: for pest or weed control at 35 g/ha / pest or weed control at 70 g/ha / pest or weed control at 140 g/ha / pest or weed control at 280 g/ha: Euphorbia heterophylla, 336 h, foliar post-emergent, scored after 14 days, read-out: % Visual Growth Reduction EPHHL; for pest or weed control at 35 g/ha: 35 g ai/ha; for pest or weed control at 70 g/ha: 70 g ai/ha; for pest or weed control at 140 g/ha: 140 g ai/ha; for pest or weed control at 280 g/ha: 280 g ai/ha; for GR80 Value EPHHL: calculated by probit analysis, dose for 80% visual injury, may be extrapolated
Method in brief: as §2

[4] = test system: Amaranthus retroflexus L. (pigweed, redroot); details: for pest or weed control at 35 g/ha / pest or weed control at 70 g/ha / pest or weed control at 140 g/ha / pest or weed control at 280 g/ha: Amaranthus retroflexus, 336 h, foliar post-emergent, scored after 14 days, read-out: % Visual Growth Reduction AMARE; for pest or weed control at 35 g/ha: 35 g ai/ha; for pest or weed control at 70 g/ha: 70 g ai/ha; for pest or weed control at 140 g/ha: 140 g ai/ha; for pest or weed control at 280 g/ha: 280 g ai/ha; for GR80 Value AMARE: calculated by probit analysis, dose for 80% visual injury, may be extrapolated
Method in brief: as §2

[5] = test system: Echinochloa crus-galli (L.) Beauv. (barnyardgrass); details: for pest or weed control at 35 g/ha / pest or weed control at 70 g/ha / pest or weed control at 140 g/ha / pest or weed control at 280 g/ha: Echinochloa crus-galli, 336 h, foliar post-emergent, scored after 14 days, read-out: % Visual Growth Reduction ECHCG; for pest or weed control at 35 g/ha: 35 g ai/ha; for pest or weed control at 70 g/ha: 70 g ai/ha; for pest or weed control at 140 g/ha: 140 g ai/ha; for pest or weed control at 280 g/ha: 280 g ai/ha; for GR80 Value ECHCG: calculated by probit analysis, dose for 80% visual injury, may be extrapolated
Method in brief: as §2

[6] = test system: Viola tricolor L. (pansy); details: for pest or weed control at 35 g/ha / pest or weed control at 70 g/ha / pest or weed control at 140 g/ha / pest or weed control at 280 g/ha: Viola tricolor, 336 h, foliar post-emergent, scored after 14 days, read-out: % Visual Growth Reduction VIOTR; for pest or weed control at 35 g/ha: 35 g ai/ha; for pest or weed control at 70 g/ha: 70 g ai/ha; for pest or weed control at 140 g/ha: 140 g ai/ha; for pest or weed control at 280 g/ha: 280 g ai/ha; for GR80 Value VIOTR: calculated by probit analysis, dose for 80% visual injury, may be extrapolated
Method in brief: as §2

Compound | plant injury at 70 g/ha (Oryza sativa L. (rice)) [%] | plant injury at 140 g/ha (Oryza sativa L. (rice)) [%] | plant injury at 280 g/ha (Oryza sativa L. (rice)) [%] | plant injury at 70 g/ha (Zea mays L. (corn)) [%] | plant injury at 140 g/ha (Zea mays L. (corn)) [%] | plant injury at 280 g/ha (Zea mays L. (corn)) [%] | pest or weed control at 70 g/ha [1] [%] | pest or weed control at 140 g/ha [1] [%] | pest or weed control at 280 g/ha [1] [%] | GR80 Value CHEAL [1] [g ai/ha] | pest or weed control at 70 g/ha [2] [%] | pest or weed control at 140 g/ha [2] [%] | pest or weed control at 280 g/ha [2] [%] | GR80 Value HELAN [2] [g ai/ha] | pest or weed control at 70 g/ha [3] [%] | pest or weed control at 140 g/ha [3] [%] | pest or weed control at 280 g/ha [3] [%] | GR80 Value EPHHL [3] [g ai/ha] | pest or weed control at 70 g/ha [4] [%] | pest or weed control at 140 g/ha [4] [%] | other results
COC(=O)c1nc(C(F)F)cc(N)c1Cl [Compound F12, methyl 4-amino-3-chloro-6-(difluoromethyl)picolinate] | 0 | 0 | 8 | 30 | 60 | 70 | 100 | 100 | 100 | <17.5 | 100 | 100 | 100 | 23.1 | 100 | 100 | 100 | 29.2 | 100 | 100 | plant injury at 35 g/ha (Oryza sativa L. (rice)): 0%; plant injury at 35 g/ha (Zea mays L. (corn)): 15%; pest or weed control at 35 g/ha [1]: 90%; pest or weed control at 35 g/ha [2]: 100%; pest or weed control at 35 g/ha [3]: 90%; pest or weed control at 35 g/ha [4]: 80%; pest or weed control at 280 g/ha [4]: 100%; GR80 Value AMARE [4]: 26.8 g ai/ha; pest or weed control at 35 g/ha [5]: 0%; pest or weed control at 70 g/ha [5]: 0%; pest or weed control at 140 g/ha [5]: 55%; pest or weed control at 280 g/ha [5]: 80%; GR80 Value ECHCG [5]: 249 g ai/ha; pest or weed control at 35 g/ha [6]: 90%; pest or weed control at 70 g/ha [6]: 100%; pest or weed control at 140 g/ha [6]: 100%; pest or weed control at 280 g/ha [6]: 100%; GR80 Value VIOTR [6]: 29.2 g ai/ha
Nc1c(F)c(CF)nc(C(=O)O)c1Cl [Compound F36, 4-Amino-3-chloro-5-fluoro-6-(fluoromethyl)picolinic acid] | 10 | 20 | 30 | 20 | 40 | 70 | 100 | 100 | 100 | 36.1 | 80 | 85 | 90 | 70 | 100 | 100 | 100 | <17.5 | 100 | 100 | plant injury at 35 g/ha (Oryza sativa L. (rice)): 0%; plant injury at 35 g/ha (Zea mays L. (corn)): 0%; pest or weed control at 35 g/ha [1]: 80%; pest or weed control at 35 g/ha [2]: 70%; pest or weed control at 35 g/ha [3]: 100%; pest or weed control at 35 g/ha [4]: 100%; pest or weed control at 280 g/ha [4]: 100%; GR80 Value AMARE [4]: <17.5 g ai/ha; pest or weed control at 35 g/ha [5]: 50%; pest or weed control at 70 g/ha [5]: 50%; pest or weed control at 140 g/ha [5]: 80%; pest or weed control at 280 g/ha [5]: 95%; GR80 Value ECHCG [5]: 132 g ai/ha; pest or weed control at 35 g/ha [6]: 10%; pest or weed control at 70 g/ha [6]: 20%; pest or weed control at 140 g/ha [6]: 80%; pest or weed control at 280 g/ha [6]: 75%; GR80 Value VIOTR [6]: 246 g ai/ha
COC(=O)c1nc(C(F)F)c(Cl)c(N)c1Cl [Compound F7, Methyl 4-amino-3,5-dichloro-6-(difluoromethyl)picolinate] | 0 | 0 | 0 | 0 | 0 | 10 | 0 | 0 | 0 | >280 | 60 | 80 | 90 | 145 | 90 | 100 | 100 | 17.5 | 75 | 90 | pest or weed control at 280 g/ha [4]: 100%; GR80 Value AMARE [4]: 84.2 g ai/ha; pest or weed control at 70 g/ha [5]: 0%; pest or weed control at 140 g/ha [5]: 0%; pest or weed control at 280 g/ha [5]: 0%; GR80 Value ECHCG [5]: >280 g ai/ha; pest or weed control at 70 g/ha [6]: 0%; pest or weed control at 140 g/ha [6]: 0%; pest or weed control at 280 g/ha [6]: 0%; GR80 Value VIOTR [6]: >280 g ai/ha
